Tested on: artificial tissue
Experiment: Contraction type classification (single/double) of contractile force waveforms of artificial tissue under baseline and perturbed conditions (FIG. 27)
Format: cell-based
Conditions: functional response = contractile force; first and second (increasing) dose of isoproterenol vs reference/control conditions; shown most clearly at the second dose
Excerpt: The waveforms comprise functional responses (contractile force) of an artificial tissue under baseline conditions and two perturbed conditions. Examples of perturbed conditions are treatment of a tissue with a drug or compound, different cell lines, different disease states, physical perturbation of the artificial tissue, changes made to the platform or bioreactor containing the artificial tissue, and the like. The baseline waveform 2702, the first perturbed waveform 2704, and the second perturbed waveform 2706 are associated with a baseline classification vector 2708, a first perturbed classification vector 2710, and a second perturbed classification vector 2712 respectively. […]
The classification vectors (e.g., the baseline classification vector 2708) are obtained by extracting a plurality of functional response waveforms from each waveform (as described in more detail below in relation to FIG. 33) and then determining a contraction type for each functional response waveform using a prediction model (e.g., the prediction model 600 described above in relation to FIGS. 6 and 7). […] In contrast, the third classification value 2720 is a double contraction type (as indicated by the dark gray shading) because the associated functional response waveform 2724 is determined by the prediction model to contain a double contraction. […]

SMILES: CC(C)NCC(O)c1ccc(O)c(O)c1 (stereo not shown) [isoproterenol]
- contraction type classification vector of the perturbed waveforms compared to the baseline classification vector: induces regular double contractions of the artificial tissue
